The source of these data is patent US9833497B2, “Human originated EGF domain proteins and use of the same” (CHENGDU SOURCEBIO LIMITED-LIABILITY COMPANY, priority 2013, dated 2017).

What is called MIC is the smallest concentration in the dilution series that meets the test's criterion for growth inhibition. A higher MIC goes with a less susceptible organism.

One assay relates to Serratia marcescens. Nature of the assay: MIC against Gram-negative bacteria: Serratia marcescens. Type of assay: cell-based. The procedure, abridged: (§1)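 MIC, the lowest recombinant protein concentration giving no bacterial growth, found by two-fold serial dilution of human EGF-domain proteins in triplicate. Inoculum 5×10^5 CFU/mL in LB from cultures at McFarland 0.5; plates incubated at 37° C, 175 rpm shaking.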

The next assay has as its system Citrobacter diversus. Kind of assay: MIC against Gram-negative bacteria: Citrobacter diversus. Type of assay: cell-based. In a few lines:
as §1

Assay [1] can be described thus: Silver staining detection of endotoxin (LPS) hydrolysis. Type of assay: biochemical. To be noted: E. coli EH100 LPS incubated overnight with protein, FIG. 28. The protocol:
1. The E. coli EH100 LPS (Sigma) samples were respectively incubated with the obtained human-originated EGF domain proteins (PRT1 to PRT1498 in Table 1) such as the recombination protein hF VII-EGF1, etc.; and the control group was the LPS sample incubated with TB S buffer. The incubation lasted overnight. Then, the centrifugation was performed to collect the pellet.
2. The 1×loading buffer for LPS (0.05 mol/L Tris-HCl, containing 10 g/L SDS, 100 g/L sucrose, 0.5% β-mercaptoethanol, 10 mg/L Bromophenol Blue, pH 6.8) was mixed with the sample of the treated pellet and incubated on a metal bath at 100° C. for 5 min.
3. 15% separating gel (containing 4 mol/L urea, Bio-Rad with a thickness of 1.0 mm, the detailed composition as follows: 1.15 mL of deionized water, 2.5 mL of 30% acrylamide, 1.3 mL of 1.5 mol/L Tris-HCl (pH 8.8, containing 10% SDS), 50 μl of 10% ammonium persulfate, 4 μl of TEMED) was mixed well and prepared. The top of the separating gel was overlaid with water.
4. 5% stacking gel was prepared as follows: 1.42 mL of deionized water, 0.33 mL of 30% acrylamide, 0.25 mL of 1 mol/L Tris-HCl (pH 6.8, containing 10% SDS), 20 μL of 10% ammonium persulfate, 2 μL of TEMED) were mixed well and poured. A ten-well comb was quickly inserted.
5. After the gel was prepared, the samples were loaded. Then, the gel was run at a voltage of 120 V to separate the samples. […]

The subject of another assay is Proteus vulgaris. Kind of assay: MIC against Gram-negative bacteria: Proteus vulgaris. Type of assay: cell-based. In a few lines:
as §1

The subject of another assay is Moraxella catarrhalis. Kind of assay: MIC against Gram-negative bacteria: Moraxella catarrhalis. Type of assay: cell-based. The procedure, abridged: as §1
In the next assay the test system is E. coli BL21. Kind of assay: MIC against Gram-negative bacteria: E. coli BL21. In kind it is cell-based. The procedure, abridged:
as §1

A further assay deals with E. coli DH5α. Kind of assay: Antibacterial activity: MIC and growth curve against E. coli DH5α in 96-well plate. In kind it is cell-based. To be noted: for MIC: minimal inhibitory concentration against E. coli DH5α, 96-well plate, 37° C., judged after 8 h. The procedure, abridged: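 MIC taken as lowest protein level with no bacterial growth, tracked by A600 every 30 min during 37 °C, 175 rpm culture. Two-fold protein series 50-12.5 μg/mL final, triplicate wells, against 5×10^5 CFU/mL of LB-washed mid-log cells.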

The subject of the next assay is Proteus mirabilis. Nature of the assay: MIC against Gram-negative bacteria: Proteus mirabilis. In kind it is cell-based. The procedure, abridged:
as §1

The test system of a further assay is Klebsiella pneumonia. Kind of assay: MIC against Gram-negative bacteria: Klebsiella pneumonia. Type of assay: cell-based. In a few lines: as §1
A further assay has as its system Pseudomonas aeruginosa. Kind of assay: MIC against Gram-negative bacteria: Pseudomonas aeruginosa. Type of assay: cell-based. In a few lines: as §1
For another assay, the system named is Enterobacter cloacae. Nature of the assay: MIC against Gram-negative bacteria: Enterobacter cloacae. Type of assay: cell-based. The procedure, abridged:
as §1

In another assay the test system is Aeromonas hydrophila. Kind of assay: MIC against Gram-negative bacteria: Aeromonas hydrophila. Type of assay: cell-based. In a few lines: as §1
The mark [2] stands for this setting: 96-well plate, 5×10^5 CFU/mL, 37° C., 10 h.

For the substance “hF VII-EGF1: human coagulation factor VII-EGF1 domain protein, molecular weight about 3.9 kD, recombinant, released from RFP fusion by rTEV (DGDQCASSPCQNGGSCKDQLQSYICFCLPAFEGRNCE; listed as Homo sapiens)”, in the assay with Serratia marcescens (Serratia marcescens, 96-well plate, 5×10^5 CFU/mL, 37° C., 10 h), the “MIC (μg/mL) S. marcescens” value is 12.5 µg/mL. Moreover, in the assay on Citrobacter diversus (Citrobacter diversus, 96-well plate, 5×10^5 CFU/mL, 37° C., 10 h), the “MIC (μg/mL) C. diversus” value was determined as 12.5 µg/mL. The “hydrolysis of LPS (LPS band in silver staining)” value in assay [1] was “eliminates the majority of LPS”. For the same substance, the “MIC (μg/mL) P. vulgaris” value with Proteus vulgaris (Proteus vulgaris, 96-well plate, 5×10^5 CFU/mL, 37° C., 10 h) came to 12.5 µg/mL. The “MIC (μg/mL) M. catarrhalis” value in the assay with Moraxella catarrhalis (Moraxella catarrhalis, 96-well plate, 5×10^5 CFU/mL, 37° C., 10 h) is 25 µg/mL. Also, the “MIC (μg/mL) E. coli BL21” value in the assay with E. coli BL21 (E. coli BL21, 96-well plate, 5×10^5 CFU/mL, 37° C., 10 h) is 12.5 µg/mL. Besides, the “MIC (minimal inhibitory concentration)” value in the assay on E. coli DH5α (E. coli DH5α, 5×10^5 CFU/mL, after 8 h of cultivation at 37° C.) turned out to be 12.5 µg/mL. Moreover, the “inhibitory effect on the growth of E. coli DH5α” value in the assay with E. coli DH5α (growth curve (OD 600 nm), FIG. 27 / Table 2) is on record as “significant inhibitory effect”. Moreover, the MIC with E. coli DH5α (5×10^5 CFU/mL) was 12.5 µg/mL. For the same substance, the “MIC (μg/mL) P. mirabilis” value in the assay on Proteus mirabilis (Proteus mirabilis, 96-well plate, 5×10^5 CFU/mL, 37° C., 10 h) stood at 25 µg/mL. For the same substance, the “MIC (μg/mL) K. pneumonia” value against Klebsiella pneumonia (Klebsiella pneumonia, 96-well plate, 5×10^5 CFU/mL, 37° C., 10 h) worked out at 25 µg/mL. For the same substance, in the assay with Pseudomonas aeruginosa (Pseudomonas aeruginosa, 96-well plate, 5×10^5 CFU/mL, 37° C., 10 h), the “MIC (μg/mL) P. aeruginosa” value was 25 µg/mL. Moreover, in the assay with Enterobacter cloacae (Enterobacter cloacae, 96-well plate, 5×10^5 CFU/mL, 37° C., 10 h), the “MIC (μg/mL) E. cloacae” value amounted to 12.5 µg/mL. Also, in the assay with Aeromonas hydrophila (Aeromonas hydrophila, 96-well plate, 5×10^5 CFU/mL, 37° C., 10 h), the “MIC (μg/mL) A. hydrophila” value was 12.5 µg/mL.
For the substance “PRT1358 (SQLACPSDCNDQGKCVNGVCICFEGYAGADCS; listed as Homo sapiens)”, the “MIC against S. marcescens” value in the assay with Serratia marcescens (Serratia marcescens, 5×10^5 CFU/mL, 10 h cultivation at 37° C.) is 12.5 µg/mL. In addition, the “MIC against C. diversus” value against Citrobacter diversus (Citrobacter diversus, 5×10^5 CFU/mL, 10 h cultivation at 37° C.) is 12.5 µg/mL. For the same substance, in the assay with Proteus vulgaris (Proteus vulgaris, 5×10^5 CFU/mL, 10 h cultivation at 37° C.), the “MIC against P. vulgaris” value came to 25 µg/mL. For the same substance, the “MIC against M. catarrhalis” value against Moraxella catarrhalis (Moraxella catarrhalis, 5×10^5 CFU/mL, 10 h cultivation at 37° C.) stood at 25 µg/mL. Further, the “MIC against E. coli BL21” value against E. coli BL21 (E. coli BL21, 5×10^5 CFU/mL, 10 h cultivation at 37° C.) came to 12.5 µg/mL. The same substance showed an MIC in the assay on E. coli DH5α (5×10^5 CFU/mL) of 50 µg/mL. The “MIC against P. mirabilis” value in the assay with Proteus mirabilis (Proteus mirabilis, 5×10^5 CFU/mL, 10 h cultivation at 37° C.) stood at 12.5 µg/mL. Moreover, in the assay with Klebsiella pneumonia (Klebsiella pneumonia, 5×10^5 CFU/mL, 10 h cultivation at 37° C.), the “MIC against K. pneumonia” value is 12.5 µg/mL. For the same substance, in the assay with Pseudomonas aeruginosa (Pseudomonas aeruginosa, 5×10^5 CFU/mL, 10 h cultivation at 37° C.), the “MIC against P. aeruginosa” value amounted to 50 µg/mL. Also, the “MIC against E. cloacae” value in the assay with Enterobacter cloacae (Enterobacter cloacae, 5×10^5 CFU/mL, 10 h cultivation at 37° C.) is 12.5 µg/mL. Further, the “MIC against A. hydrophila” value against Aeromonas hydrophila (Aeromonas hydrophila, 5×10^5 CFU/mL, 10 h cultivation at 37° C.) came to 25 µg/mL.
As for “PRT625 (CNCSGRSEECTFDRELFRSTGHGGRCHHCRDHTAGPHCERCQENFYHWDPRMPCQP; listed as Homo sapiens)”, in the assay on Serratia marcescens (setting [2]), the “MIC S. marcescens” value was determined as 12.5 µg/mL. In the assay on Citrobacter diversus (setting [2]), the “MIC C. diversus” value was found to be 12.5 µg/mL. For the same substance, the “MIC P. vulgaris” value in the assay with Proteus vulgaris (setting [2]) came to 25 µg/mL. The “MIC M. catarrhalis” value in the assay on Moraxella catarrhalis (setting [2]) came out at 25 µg/mL. Besides, the “MIC E. coli BL21” value in the assay on E. coli BL21 (setting [2]) amounted to 25 µg/mL. Further, the MIC with E. coli DH5α (5×10^5 CFU/mL) was 12.5 µg/mL. For the same substance, the “MIC P. mirabilis” value in the assay on Proteus mirabilis (setting [2]) worked out at 50 µg/mL. Besides, in the assay on Klebsiella pneumonia (setting [2]), the “MIC K. pneumonia” value is 25 µg/mL. For the same substance, in the assay with Pseudomonas aeruginosa (setting [2]), the “MIC P. aeruginosa” value was 12.5 µg/mL. The “MIC E. cloacae” value in the assay with Enterobacter cloacae (setting [2]) came to 50 µg/mL. Also, in the assay on Aeromonas hydrophila (setting [2]), the “MIC A. hydrophila” value was determined as 25 µg/mL.
On to “PRT1007 (HVNPCESRPCQNGATCMAQPSGYLCQCAPGYDGQNCS; listed as Homo sapiens)”, for which the MIC with Serratia marcescens (S. marcescens, 10 h cultivation at 37° C.) came out at 25 µg/mL; in the assay with Citrobacter diversus (C. diversus, 10 h cultivation at 37° C.), 12.5 µg/mL; in the assay on Proteus vulgaris (P. vulgaris, 10 h cultivation at 37° C.) it was 12.5 µg/mL; with Moraxella catarrhalis (M. catarrhalis, 10 h cultivation at 37° C.) it was 50 µg/mL; against E. coli BL21 (E. coli BL21, 10 h cultivation at 37° C.), 12.5 µg/mL; with E. coli DH5α (5×10^5 CFU/mL) it was 25 µg/mL. The MIC against Proteus mirabilis (P. mirabilis, 10 h cultivation at 37° C.) stood at 25 µg/mL; against Klebsiella pneumonia (K. pneumonia, 10 h cultivation at 37° C.) it was 50 µg/mL; against Pseudomonas aeruginosa (P. aeruginosa, 10 h cultivation at 37° C.), 25 µg/mL; in the assay on Enterobacter cloacae (E. cloacae, 10 h cultivation at 37° C.), 12.5 µg/mL; against Aeromonas hydrophila (A. hydrophila, 10 h cultivation at 37° C.), 50 µg/mL.
